Assay results taken from PubChem BioAssay AID179 (DTP/NCI, 2004).
Calls of active or inactive are those of the source.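 The calls were made as follows: active = compounds giving half or more protection of infected cells from virus-caused growth loss, again on retest; inactive = the rest.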 Where a SMILES comes first, the peptide text is derived from it. The star is where a group is joined. Boc = CC(C)(C)OC(=O)*; OBn = c1ccc(CO*)cc1; Bn = c1ccc(C*)cc1

System: CEM cells HIV-1 protection, formazan growth assay
Assay: NCI AIDS Antiviral Assay
Settings: for IC50: measured here: growth of uninfected CEM cells
Method in brief: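 Category rules: moderately active means at least 50% protection on retest, and confirmed active means 100% protection reproducibly. The underlying data came from a formazan growth assay in HIV-1-infected CEM cells.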

SMILES	EC50	IC50	outcome
CC(C)(C)N1C(=O)[N+]2(CCCCC2)N=C1[O-]	> 4.47 µM	> 4.47 µM	–
CN(CN(C)/N=C/c1ccc(Cl)cc1)/N=C/c1ccc(Cl)cc1	–	–	inactive
COc1cc(OC)c2c(=O)c3cccc(C)c3n(C)c2c1	> 200 µM	95.5 µM	–
O=C1c2ccccc2C2CCC1c1ccccc12 (stereo unspecified)	> 32.4 µM	26.3 µM	–
O=C1CCCC[C@H]1C(O)CC1CC(=O)N(c2ccccc2)C(=O)C1 (stereo partly specified)	> 200 µM	> 200 µM	–
CCn1c(SCC(=O)N/N=C/c2ccccc2)nc2ccccc2c1=O	> 200 µM	23.4 µM	–
CC(=O)N1N=C(c2c(O)ccc3ccccc23)CC1c1ccc(Cl)cc1 (stereo unspecified)	> 200 µM	25.1 µM	–
O=C1c2ccccc2NC(=O)C2C1C(c1ccccc1)CC2(O)c1ccccc1 (stereo unspecified)	> 200 µM	33.1 µM	–
O=S(=O)(O)c1ccc(O)c(N=Nc2ccc(/C=C/c3ccc(N=Nc4cc(S(=O)(=O)O)ccc4O)cc3S(=O)(=O)O)c(S(=O)(=O)O)c2)c1	> 200 µM	126 µM	–
COc1ccc2c(c1)c(C(=O)O)cc(=O)n2C	> 200 µM	> 200 µM	–
N.N.N.N.O=[N+]([O-])[O-].[Co+3].[N-]=[N+]=[N-].[N-]=[N+]=[N-]	–	–	inactive
CCOC(=O)c1oc2cc(O)ccc2c(=O)c1-c1ccc(OC)c(OC)c1	> 200 µM	51.3 µM	–
C[C@H](OC(=O)/C=C/c1ccc(O)c(O)c1)[C@H](C)OC(=O)/C=C/c1ccc(O)c(O)c1	> 200 µM	3.47 µM	–
Cc1csc2nc3[nH]ncc3c(=O)n12	> 200 µM	97.7 µM	–
O=[N+]([O-])C1C2C=CC(C2)[C@H]1c1ccc(Cl)cc1Cl (stereo partly specified)	–	–	inactive
CC(=O)Nc1cc2nc3n(c2cc1C)CCC3OC(C)=O (stereo unspecified)	> 200 µM	> 200 µM	–
COc1ccccc1NC(=O)C(=O)C(c1cnc2ccc([N+](=O)[O-])cc2n1)[N+](=O)[O-] (stereo unspecified)	> 316 µM	89.1 µM	–
N#CNC(=NCc1ccccc1)N(Cc1ccccc1)Cc1ccccc1	> 14.8 µM	> 14.8 µM	–
CC[C@@H](C)[C@H]([C@H](CC(=O)N1CCC[C@@H]1[C@@H](OC)[C@H](C)C(=O)N[C@H](Cc1ccccc1)c1nccs1)OC)N(C)C(=O)[C@H](NC(=O)[C@@H](C(C)C)N(C)C)C(C)C	> 316 µM	0.1 µM	–
CC(=O)[O-].[Mn+3].[O-]c1ccccc1C=NCCNCCN=Cc1ccccc1[O-]	> 182 µM	10.5 µM	–
CN(C)[C@@H]1C(=O)C(C(=O)NCNc2cccc(C(=O)O)c2C(=O)O)=C(O)[C@@]2(O)C(=O)C3=C(O)c4c(O)cccc4[C@@](C)(O)[C@H]3C[C@@H]12	> 5.89 µM	> 5.89 µM	–

SMILES	EC50	IC50	outcome
CC1=CC2OC3CC(OC(=O)/C=C/C=C/C(OCCC4=CC(=O)OC4)C(C)O)C(C)(C2(CO)CC1)C31CO1 (stereo unspecified)	> 67.6 µM	1.51 µM	–
Cn1nc(Cc2ccc(Cl)cc2)n(N)c1=O	> 200 µM	> 200 µM	–
CC(C)S1=C2C(=O)CC(C)(C)CC2=Nc2ccccc21 (stereo unspecified)	61.7 µM	> 200 µM	–
CCOC(=O)c1c(-c2ccc(OC)c(O)c2)c(C#N)c(=S)n(C2OC(CO)C(O)C(O)C2O)c1-c1ccccc1 (stereo unspecified)	> 200 µM	> 200 µM	–
O=CC[C@@]12CC(=O)OC(C1)[C@@H](I)CC21OCCO1	> 200 µM	> 200 µM	–
O=c1[nH]c2cnn(-c3ccccc3)c2c(=O)n1O	> 200 µM	21.4 µM	–
Cc1cc(S(=O)(=O)Nc2nc3cscc3c(=O)n2N)c(S)cc1Cl	33.9 µM	132 µM	–
Nc1cc(C(F)(F)F)ccc1S	> 200 µM	22.9 µM	–
CCCCN(CCCC)C(=O)C(=O)C(C(=O)C(=O)OC)c1nc2ccccc2o1 (stereo unspecified)	> 33.9 µM	> 33.9 µM	–
CCN(CC)c1ccc2cc(-c3nc4ccccc4[nH]3)c(=O)oc2c1	> 7.76 µM	> 7.76 µM	–
O=C(CC1(O)C(=O)Nc2c(Cl)cccc21)c1ccccc1 (stereo unspecified)	> 832 µM	158 µM	–
O=c1cc(N2CCCC2)[nH]c(=O)n1Cc1ccccc1	–	–	inactive
S=c1sc2ccccc2n1CNc1ccccc1Cl	> 200 µM	28.2 µM	–
N/C(=N\N=C(/N)C(F)(F)F)C(F)(F)F	> 200 µM	> 200 µM	–
N/N=C1\C(=O)N(Cc2ccccc2)C(=O)C1C(=O)NCc1ccccc1 (stereo unspecified)	> 7.76 µM	> 7.76 µM	–
Cc1c(-c2ccccc2)c(=O)oc2c3c(ccc12)OC(C)(C)[C@H](OC(=O)C12CCC(C)(C(=O)O1)C2(C)C)[C@@H]3OC(=O)C12CCC(C)(C(=O)O1)C2(C)C (stereo partly specified)	> 100 µM	> 100 µM	–
CC(C)CC(NC(=O)C(CCC(=O)OCc1ccccc1)NC(=O)OC(C)(C)C)C(=O)NC(COCc1ccccc1)C(=O)NC(Cc1ccccc1)C(=O)O (stereo unspecified) (Boc-E(OBn)LS(Bn)F-OH; configuration not given here)	> 200 µM	> 200 µM	–
C#C[C@]1(O)CCC2C3CCc4cc(Oc5nc(F)nc(-c6c7cc8ccccc8cc7c7n6CCS7)n5)ccc4C3CCC21C (stereo partly specified)	> 200 µM	25.1 µM	–
O=c1[nH]c(=O)n(C2CC(O)C(CO)O2)cc1OCc1ccccc1 (stereo unspecified)	> 200 µM	> 200 µM	–
COc1ccc(C2=Cc3nc2c(-c2ccccc2)c2ccc([nH]2)c(-c2ccccc2)c2nc(c(-c4ccccc4)c4ccc([nH]4)c3-c3ccccc3)C=C2)cc1	> 100 µM	> 100 µM	–
CCOC(=O)/C(=N/Nc1ccc(Cl)cc1)N1C(=S)C=C(C)NN(C)C1=S	> 200 µM	> 200 µM	–

SMILES	EC50	IC50	outcome
Cc1cc2c(c(C=Nc3ccc(N(C)C)cc3)c1)OC1(C=C2)Oc2ccccc2C(=O)N1C (stereo unspecified)	> 41.7 µM	13.2 µM	–
Cc1ccc(-c2nnc(CCCCCCCCc3nnc(-c4ccc(C)cc4O)n3N)n2N)c(O)c1	> 200 µM	120 µM	–
COC1CC(CC(C)O)CN(C#N)CCc2c1[nH]c1ccccc21 (stereo unspecified)	> 79.4 µM	> 79.4 µM	–
COc1nc(N=P(c2ccccc2)(c2ccccc2)c2ccccc2)cc(=O)n1C	–	–	inactive
CCC1(OC(=O)CN)C(=O)OCc2c1cc1n(c2=O)Cc2cc3ccccc3nc2-1 (stereo unspecified)	> 10 µM	0.00692 µM	–
N#CC1=C(c2ccccc2)OC2(N)OC(c3ccccc3)=C(C#N)C12C#N (stereo unspecified)	–	–	inactive
CC1C(c2ccccc2)OCN1CC=C(c1ccsc1)c1ccsc1 (stereo unspecified)	> 200 µM	15.1 µM	–
CCCC(C(=O)OCC)N1C(=O)c2ccccc2S1(=O)=O (stereo unspecified)	> 200 µM	148 µM	–
COc1cccc(/C=C2\CCc3ccccc3C2=O)c1	> 14.5 µM	> 14.5 µM	–
O=C1C(=Nc2ccc(Nc3ccccc3)cc2)Oc2ccccc21	> 200 µM	3.09 µM	–
CCOC(=O)c1c(N)sc(C)c1C	> 200 µM	117 µM	–
CCOC(=O)c1c(Br)c(-c2ccc(OC)cc2)c(Br)n1C	> 200 µM	12.6 µM	–
CSc1n(CC(=O)OC(C)(C)C)nc[n+]1N	> 200 µM	> 200 µM	–
COC(=O)[C@@H](Cc1ccccc1)N1O[C@]12CCCC[C@@H]2NC(=O)OC(C)(C)C (stereo partly specified)	> 200 µM	32.4 µM	–
Clc1ccc(CNc2nc(Cl)c3[nH]cnc3n2)cc1Cl	> 200 µM	22.9 µM	–
CCOC(=O)c1ccc(-n2nc(C)cc(Cl)c2=O)cc1	> 123 µM	23.4 µM	–
CC1(C)CC(=O)c2c(oc3cc(O)c(O)cc23)C1	–	–	inactive
C=C1C(=O)O[C@@H]2[C@H]1CC[C@H](C)[C@@H]1CCC(=O)[C@@]21C	> 200 µM	3.39 µM	–
C=CCCCCCCCCCOC1C=CC(OC(C)=O)C(COC(C)=O)O1 (stereo unspecified)	> 200 µM	63.1 µM	–
Cc1ccc(S(=O)(=O)N/N=C(\c2nc3ccc([N+](=O)[O-])cc3[nH]c2=O)C(O)c2ccccc2Cl)cc1 (stereo unspecified)	–	–	inactive
Cn1c(=O)c2nc3c(nc2n(C)c1=O)oc1ccccc13	–	–	inactive

SMILES	EC50	IC50	outcome
COc1ccc(NCC/C=C\[Si](C)(C)C)cc1	–	–	inactive
Cc1ccc2oc(=O)ccc2c1	> 427 µM	174 µM	–
O/N=C1/CCCC/C1=C/c1ccc(Cl)cc1	–	–	inactive
N#C/C(=C\c1ccccc1[N+](=O)[O-])c1ccccc1	> 5.75 µM	> 5.75 µM	–
CCCCN(S(=O)(=O)c1ccccc1)S(=O)(=O)c1ccccc1	> 200 µM	> 200 µM	–
CC/C(=N/OC(=O)NC)c1ccccc1	> 200 µM	> 200 µM	–
O=C(NCCOC(=O)OCCNC(=O)NC1CCCCC1)NC1CCCCC1	> 200 µM	> 200 µM	–
Fc1ccc(NC(=S)Nc2ccccn2)cc1	> 158 µM	129 µM	–
Cc1c(Cl)cccc1NC(=O)CC1C(=O)Nc2ccccc2S1(=O)=O (stereo unspecified)	> 5.25 µM	> 5.25 µM	–
C=C1C(C2(C)C=CC(=O)OC3(C)COC(=O)CC32)C(OC=O)C(OC(=O)C(O)C(C)CC)C2(C)C(c3ccoc3)CC(OC(C)=O)C12O (stereo unspecified)	–	–	inactive
Cc1c2n(c(=O)[nH]c1=O)C1OC(CO)C(N=[N+]=[N-])C1O2 (stereo unspecified)	> 200 µM	> 200 µM	–
CC(=O)OCC1OC(n2ncc(=O)[nH]c2=O)C(OC(C)=O)C1OC(C)=O (stereo unspecified)	> 2 µM	1.05 µM	–
C=CCNc1nc2c(s1)CCc1cc(OC)c(OC)cc1-2	> 24 µM	> 24 µM	–
CC(=O)/C(=C/N1CC(=O)NC1=S)C(=O)Nc1ccccc1	> 200 µM	> 200 µM	–
CCCCN(CCCC)CCNc1ccc(Cl)c2oc3cc(C)ccc3c(=O)c12	> 21.9 µM	> 21.9 µM	–
CC1(c2ccccc2)CCN(C2CC2)CO1 (stereo unspecified)	> 200 µM	23.4 µM	–
CC(C)(C)OC(=O)Cn1ncn(NC(=O)Cc2ccccc2)c1=O	> 200 µM	> 200 µM	–
O=C1CC(CC(=O)C2CCCCC2=O)CC(=O)N1 (stereo unspecified)	–	–	inactive
CCCN(CC)C(=O)COc1cc2c(O)c3c(O)c(C)c4c(c13)C(=O)C(C)(O/C=C/C(OC)C(C)C(OC(C)=O)C(C)C(O)C(C)C(O)C(C)/C=C/C=C(\C)C(=O)N2)O4 (stereo unspecified)	> 200 µM	12.9 µM	–
